Results as given in PMC5224920, “Assessing the mechanism and therapeutic potential of modulators of the human Mediator complex-associated protein kinases” (eLife, 2016).

Test system: 12 single or co-culture in vitro tissue models of primary cells
Experiment: Culture/co-culture cell model panel, extracellular biomarkers (DiscoveRx); on CCL2/MCP-1: reference of the scale not given here; on CD38: reference of the scale not given here; on CD40: reference of the scale not given here; on CD69: reference of the scale not given here; on CXCL8/IL-8: reference of the scale not given here; on CXCL9/MIG: reference of the scale not given here; on IL-1alpha: reference of the scale not given here; on M-CSF: reference of the scale not given here; on PBMC Cytotoxicity: reference of the scale not given here
Assay type: cell-based, human
[1] = /Mphg Huvec+macrophages, 1.00E0 nM
[2] = /Mphg Huvec+macrophages, 1.00E1 nM
[3] = /Mphg Huvec+macrophages, 1.00E2 nM
[4] = /Mphg Huvec+macrophages, 1.00E3 nM
[5] = /Mphg Huvec+macrophages, 1.00E4 nM

For CN1c2ccc(-c3cncc(Cl)c3N3CCC4(CC3)CNC(=O)O4)cc2CS1(=O)=O [CMPD2], the “Collagen III” value (/HDFNo, 1.00E3 nM) was 0.037, the CCL2/MCP-1 (/HDFNo, 1.00E4 nM) was 0.068 and the CD54/ICAM-1 (/HDFNo, 1.00E4 nM) was 0.057. The CD106/VCAM-1 (/HDFNo, 1.00E4 nM) was 0.067, the “Collagen I” value (/HDFNo, 1.00E4 nM) was 0.071 and the “Collagen III” value (/HDFNo, 1.00E4 nM) was 0.073. The CCL2/MCP-1 [1] was 0.022, the CCL3/MIP-1alpha [1] was 0.000424 and the CD40 [1] was 0.00851. The CD69 [1] was 0.038, the CD106/VCAM-1 [1] was 0.069 and the CXCL8/IL-8 [1] was 0.053. The IL-1alpha [1] was 0.041, the M-CSF [1] was -0.019 and the SRB [1] was -0.007. For the same compound, the SRB-Mphg [1] was 0.018, the sIL-10 [1] was 0.074 and the CCL2/MCP-1 [2] was -0.032. For the same compound, the CCL3/MIP-1alpha [2] was -0.016, the CD40 [2] was -0.000836 and the CD69 [2] was 0.026. It also gave a CD106/VCAM-1 [2] of 0.052, a CXCL8/IL-8 [2] of -0.00092 and an IL-1alpha [2] of 0.023. The M-CSF [2] was -0.033, the SRB [2] was -0.013 and the SRB-Mphg [2] was 0.006. For the same compound, the sIL-10 [2] was 0.045, the CCL2/MCP-1 [3] was -0.044 and the CCL3/MIP-1alpha [3] was -0.018. The CD40 [3] was 0.014, the CD69 [3] was -0.029 and the CD106/VCAM-1 [3] was 0.050. For the same compound, the CXCL8/IL-8 [3] was 0.00849, the IL-1alpha [3] was 0.033 and the M-CSF [3] was -0.037. For the same compound, the SRB [3] was -0.017, the SRB-Mphg [3] was 0.018 and the sIL-10 [3] was -0.065. The CCL2/MCP-1 [4] was -0.085, the CCL3/MIP-1alpha [4] was -0.034 and the CD40 [4] was 0.00225. For the same compound, the CD69 [4] was 0.036, the CD106/VCAM-1 [4] was 0.021 and the CXCL8/IL-8 [4] was 0.012. The IL-1alpha [4] was 0.019, the M-CSF [4] was -0.046 and the SRB [4] was -0.017. The SRB-Mphg [4] was 0.008, the sIL-10 [4] was -0.137 and the CCL2/MCP-1 [5] was -0.107. It also gave a CCL3/MIP-1alpha [5] of -0.064, a CD40 [5] of -0.00011 and a CD69 [5] of 0.061. The CD106/VCAM-1 [5] was 0.027, the CXCL8/IL-8 [5] was 0.023 and the IL-1alpha [5] was 0.024. For the same compound, the M-CSF [5] was -0.054, the SRB [5] was -0.021 and the SRB-Mphg [5] was -0.007. For the same compound, the sIL-10 [5] was -0.266, the CCL2/MCP-1 (/TH2, 1.00E0 nM) was 0.046 and the CCL26/Eotaxin-3 (/TH2, 1.00E0 nM) was -0.081. For the same compound, the CD38 (/TH2, 1.00E0 nM) was -0.015, the CD40 (/TH2, 1.00E0 nM) was -0.063 and the CD69 (/TH2, 1.00E0 nM) was -0.031. It also gave a CD87/uPAR (/TH2, 1.00E0 nM) of -0.079, a CD106/VCAM-1 (/TH2, 1.00E0 nM) of 0.031 and a CXCL8/IL-8 (/TH2, 1.00E0 nM) of 0.026. The CXCL9/MIG (/TH2, 1.00E0 nM) was 0.021, the “Collagen IV” value (/TH2, 1.00E0 nM) was -0.017 and the “PBMC Cytotoxicity” value (/TH2, 1.00E0 nM) was -0.023. For the same compound, the SRB (/TH2, 1.00E0 nM) was -0.037, the sIL-17A (/TH2, 1.00E0 nM) was 0.106 and the sIL-17F (/TH2, 1.00E0 nM) was -0.026. It also gave a CCL2/MCP-1 (/TH2, 1.00E1 nM) of -0.013, a CCL26/Eotaxin-3 (/TH2, 1.00E1 nM) of -0.160 and a CD38 (/TH2, 1.00E1 nM) of -0.040. It also gave a CD40 (/TH2, 1.00E1 nM) of -0.104, a CD69 (/TH2, 1.00E1 nM) of -0.024 and a CD87/uPAR (/TH2, 1.00E1 nM) of -0.129. For the same compound, the CD106/VCAM-1 (/TH2, 1.00E1 nM) was 0.033, the CXCL8/IL-8 (/TH2, 1.00E1 nM) was -0.063 and the CXCL9/MIG (/TH2, 1.00E1 nM) was 0.013. For the same compound, the “Collagen IV” value (/TH2, 1.00E1 nM) was -0.009, the “PBMC Cytotoxicity” value (/TH2, 1.00E1 nM) was -0.008 and the SRB (/TH2, 1.00E1 nM) was -0.062. For the same compound, the sIL-17A (/TH2, 1.00E1 nM) was 0.100, the sIL-17F (/TH2, 1.00E1 nM) was -0.047 and the CCL2/MCP-1 (/TH2, 1.00E2 nM) was -0.044. The CCL26/Eotaxin-3 (/TH2, 1.00E2 nM) was -0.160, the CD38 (/TH2, 1.00E2 nM) was -0.008 and the CD40 (/TH2, 1.00E2 nM) was -0.119. The CD69 (/TH2, 1.00E2 nM) was -0.012, the CD87/uPAR (/TH2, 1.00E2 nM) was -0.098 and the CD106/VCAM-1 (/TH2, 1.00E2 nM) was 0.035. The CXCL8/IL-8 (/TH2, 1.00E2 nM) was -0.029, the CXCL9/MIG (/TH2, 1.00E2 nM) was 0.013 and the “Collagen IV” value (/TH2, 1.00E2 nM) was 0.016. For the same compound, the “PBMC Cytotoxicity” value (/TH2, 1.00E2 nM) was -0.007, the SRB (/TH2, 1.00E2 nM) was -0.066 and the sIL-17A (/TH2, 1.00E2 nM) was 0.165. For the same compound, the sIL-17F (/TH2, 1.00E2 nM) was 0.173, the CCL2/MCP-1 (/TH2, 1.00E3 nM) was -0.082 and the CCL26/Eotaxin-3 (/TH2, 1.00E3 nM) was -0.177. The CD38 (/TH2, 1.00E3 nM) was -0.024, the CD40 (/TH2, 1.00E3 nM) was -0.095 and the CD69 (/TH2, 1.00E3 nM) was -0.010. It also gave a CD87/uPAR (/TH2, 1.00E3 nM) of -0.180, a CD106/VCAM-1 (/TH2, 1.00E3 nM) of 0.017 and a CXCL8/IL-8 (/TH2, 1.00E3 nM) of -0.045. The CXCL9/MIG (/TH2, 1.00E3 nM) was 0.011, the “Collagen IV” value (/TH2, 1.00E3 nM) was -0.006 and the “PBMC Cytotoxicity” value (/TH2, 1.00E3 nM) was -0.011. The SRB (/TH2, 1.00E3 nM) was -0.062, the sIL-17A (/TH2, 1.00E3 nM) was 0.168 and the sIL-17F (/TH2, 1.00E3 nM) was -0.013. It also gave a CCL2/MCP-1 (/TH2, 1.00E4 nM) of -0.093, a CCL26/Eotaxin-3 (/TH2, 1.00E4 nM) of -0.166 and a CD38 (/TH2, 1.00E4 nM) of -0.035. It also gave a CD40 (/TH2, 1.00E4 nM) of -0.115, a CD69 (/TH2, 1.00E4 nM) of -0.043 and a CD106/VCAM-1 (/TH2, 1.00E4 nM) of 0.00327. The CXCL8/IL-8 (/TH2, 1.00E4 nM) was -0.042, the CXCL9/MIG (/TH2, 1.00E4 nM) was 0.000193 and the “Collagen IV” value (/TH2, 1.00E4 nM) was -0.031. For the same compound, the “PBMC Cytotoxicity” value (/TH2, 1.00E4 nM) was -0.017, the SRB (/TH2, 1.00E4 nM) was -0.065 and the sIL-17A (/TH2, 1.00E4 nM) was 0.146. It also gave a sIL-17F (/TH2, 1.00E4 nM) of -0.041, a CCL26/Eotaxin-3 (BENo, 1.00E0 nM) of 0.071 and a CD54/ICAM-1 (BENo, 1.00E0 nM) of 0.057. The CD87/uPAR (BENo, 1.00E0 nM) was 0.050, the CXCL8/IL-8 (BENo, 1.00E0 nM) was 0.030 and the CXCL9/MIG (BENo, 1.00E0 nM) was 0.080. It also gave a CXCL10/IP-10 (BENo, 1.00E0 nM) of 0.112, a CXCL11/I-TAC (BENo, 1.00E0 nM) of 0.105 and an EGFR (BENo, 1.00E0 nM) of 0.075. The HLA-DR (BENo, 1.00E0 nM) was 0.134, the IL-1alpha (BENo, 1.00E0 nM) was 0.066 and the “Keratin 8/18” value (BENo, 1.00E0 nM) was 0.059. For the same compound, the MMP-1 (BENo, 1.00E0 nM) was 0.060, the MMP-9 (BENo, 1.00E0 nM) was -0.001 and the PAI-I (BENo, 1.00E0 nM) was -0.018. It also gave an SRB (BENo, 1.00E0 nM) of 0.00452, a tPA (BENo, 1.00E0 nM) of 0.028 and a uPA (BENo, 1.00E0 nM) of 0.026. It also gave a CCL26/Eotaxin-3 (BENo, 1.00E1 nM) of 0.036, a CD54/ICAM-1 (BENo, 1.00E1 nM) of 0.042 and a CD87/uPAR (BENo, 1.00E1 nM) of 0.062. For the same compound, the CXCL8/IL-8 (BENo, 1.00E1 nM) was 0.077, the CXCL9/MIG (BENo, 1.00E1 nM) was 0.047 and the CXCL10/IP-10 (BENo, 1.00E1 nM) was 0.119. The CXCL11/I-TAC (BENo, 1.00E1 nM) was 0.092, the EGFR (BENo, 1.00E1 nM) was 0.077 and the HLA-DR (BENo, 1.00E1 nM) was 0.115. For the same compound, the IL-1alpha (BENo, 1.00E1 nM) was 0.048, the “Keratin 8/18” value (BENo, 1.00E1 nM) was 0.047 and the MMP-1 (BENo, 1.00E1 nM) was 0.063. The MMP-9 (BENo, 1.00E1 nM) was -0.010, the PAI-I (BENo, 1.00E1 nM) was -0.050 and the SRB (BENo, 1.00E1 nM) was 0.00136. For the same compound, the tPA (BENo, 1.00E1 nM) was 0.026, the uPA (BENo, 1.00E1 nM) was 0.026 and the CCL26/Eotaxin-3 (BENo, 1.00E2 nM) was 0.038. For the same compound, the CD54/ICAM-1 (BENo, 1.00E2 nM) was -0.034, the CD87/uPAR (BENo, 1.00E2 nM) was 0.110 and the CXCL8/IL-8 (BENo, 1.00E2 nM) was 0.017. For the same compound, the CXCL9/MIG (BENo, 1.00E2 nM) was 0.084, the CXCL10/IP-10 (BENo, 1.00E2 nM) was 0.121 and the CXCL11/I-TAC (BENo, 1.00E2 nM) was 0.082. For the same compound, the EGFR (BENo, 1.00E2 nM) was 0.066, the HLA-DR (BENo, 1.00E2 nM) was 0.075 and the IL-1alpha (BENo, 1.00E2 nM) was 0.078. For the same compound, the “Keratin 8/18” value (BENo, 1.00E2 nM) was 0.033, the MMP-1 (BENo, 1.00E2 nM) was 0.055 and the MMP-9 (BENo, 1.00E2 nM) was 0.015. It also gave a PAI-I (BENo, 1.00E2 nM) of -0.035, an SRB (BENo, 1.00E2 nM) of 0.002 and a tPA (BENo, 1.00E2 nM) of 0.038. For the same compound, the uPA (BENo, 1.00E2 nM) was 0.032, the CCL26/Eotaxin-3 (BENo, 1.00E3 nM) was 0.020 and the CD54/ICAM-1 (BENo, 1.00E3 nM) was -0.011. The CD87/uPAR (BENo, 1.00E3 nM) was 0.063, the CXCL8/IL-8 (BENo, 1.00E3 nM) was 0.028 and the CXCL9/MIG (BENo, 1.00E3 nM) was 0.087. The CXCL10/IP-10 (BENo, 1.00E3 nM) was 0.136, the CXCL11/I-TAC (BENo, 1.00E3 nM) was 0.044 and the EGFR (BENo, 1.00E3 nM) was 0.034. The HLA-DR (BENo, 1.00E3 nM) was 0.115, the IL-1alpha (BENo, 1.00E3 nM) was 0.047 and the “Keratin 8/18” value (BENo, 1.00E3 nM) was 0.017. The MMP-1 (BENo, 1.00E3 nM) was 0.039, the MMP-9 (BENo, 1.00E3 nM) was 0.056 and the PAI-I (BENo, 1.00E3 nM) was -0.090.
